# Results from patent US20250325562A1, “Intravenous Ganaxolone Formulations and Methods of Use in Treating Status Epilepticus and Other Seizure Disorders” (MARINUS PHARMACEUTICALS, INC., priority 2015, published 2025).
# Tests used:
# [1] = Ganaxolone concentration reached in 30% Captisol solutions (with additives or dry mixing), HPLC; assay type: physicochemical
# Experimental: 500 μl of 10% aqueous Polysorbate 80 solution in a 20 ml scintillation vial were combined with powdered ganaxolone (50 mg). The mixture was stirred to wet the ganaxolone. Solid Captisol (3.2 g), sufficient to form a 30% Captisol solution, was then added to the vial and the vial contents were mixed. Deionized water (8.0 g) was then added and the mixture was vigorously stirred at room temperature overnight to obtain a hazy solution. An aliquot was filtered through 0.2 μm syringe filter and ganaxolone concentration was assayed by HPLC to be 4.28 mg/ml.
# Ganaxolone was vigorously stirred in 30% Captisol in the presence of 10% v/v ethanol overnight to obtain a 3.16 mg/ml ganaxolone solution. • (b) Ganaxolone-30% Captisol solution containing glycerin
# Ganaxolone was vigorously stirred in 30% Captisol in the presence of 10% v/v glycerin overnight to obtain a 3.45 mg/ml ganaxolone solution. • (c) Ganaxolone-30% Captisol solution containing propylene glycol
# Ganaxolone was vigorously stirred in 30% Captisol in the presence of 10% v/v propylene glycol overnight to obtain a 2.53 mg/ml ganaxolone solution.
# Powdered ganaxolone (125 mg) was charged into 100 ml beaker. Captisol powder (7.9 g) was then added to the beaker. The mixture was mixed by stirring with a magnetic stir bar for 5 min. Deionized water (20.1 g) was weighed into a plastic cup. About half of the water was added into the beaker and the contents were vigorously stirred for 30 minutes to obtain a homogeneous mixture. The remaining water was added and the beaker was covered with paraffin film.
# [2] = Phase solubility of ganaxolone in aqueous CAPTISOL solutions, HPLC; assay type: physicochemical; conditions: for Ganaxolone conc. by HPLC: 42 hours equilibrium
# Experimental: Ganaxolone solubility in aqueous CAPTISOL solution was first determined by constructing a phase solubility diagram. Excess ganaxolone was shaken in aqueous CAPTISOL solutions of known concentrations for 42 hours to reach equilibrium. The ganaxolone solution was filtered into HPLC vials through 0.45 μm syringe filters. The filtrates were assayed for ganaxolone concentration by HPLC. Moles of ganaxolone in solution against moles of CAPTISOL added were plotted.
smiles,measurement,setting,value
"CC(=O)[C@H]1CC[C@H]2[C@@H]3CC[C@H]4C[C@](C)(O)CC[C@]4(C)[C@H]3CC[C@]12C [Ganaxolone, 3α-hydroxy, 3β-methyl-5α-pregnan-20-one]",ganaxolone concentration by HPLC,"[1]; 30% Captisol with Polysorbate 80, stirred overnight at room temperature, 0.2 μm filtered",4.28 mg/mL
same,ganaxolone concentration of solution,"[1]; 30% Captisol, 10% v/v ethanol, stirred overnight",3.16 mg/mL
same,ganaxolone concentration of solution,"[1]; 30% Captisol, 10% v/v glycerin, stirred overnight",3.45 mg/mL
same,ganaxolone concentration of solution,"[1]; 30% Captisol, 10% v/v propylene glycol, stirred overnight",2.53 mg/mL
same,ganaxolone concentration after prolonged stirring,"[1]; 30% Captisol, dry mixing, after 90 hours of stirring",unchanged
same,ganaxolone concentration of solution,"[1]; 30% Captisol, prior dry mixing of ganaxolone and Captisol, stirred overnight at room temperature",4.61 mg/mL
same,Ganaxolone conc.,[2]; CAPTISOL 0 mg/mL,0 mM
same,Ganaxolone conc. by HPLC,[2]; CAPTISOL 0 mg/mL,Not detectable
same,Ganaxolone conc.,[2]; CAPTISOL 25 mg/mL (0.0116 M),1.3 mM
same,Ganaxolone conc. by HPLC,[2]; CAPTISOL 25 mg/mL (0.0116 M),0.43 mg/mL
same,Ganaxolone conc.,[2]; CAPTISOL 50 mg/mL (0.0231 M),2.7 mM
same,Ganaxolone conc. by HPLC,[2]; CAPTISOL 50 mg/mL (0.0231 M),0.88 mg/mL
same,Ganaxolone conc.,[2]; CAPTISOL 100 mg/mL (0.0462 M),5.6 mM
same,Ganaxolone conc. by HPLC,[2]; CAPTISOL 100 mg/mL (0.0462 M),1.86 mg/mL
same,Ganaxolone conc.,[2]; CAPTISOL 200 mg/mL (0.0925 M),10.9 mM
same,Ganaxolone conc. by HPLC,[2]; CAPTISOL 200 mg/mL (0.0925 M),3.63 mg/mL
same,Ganaxolone conc.,[2]; CAPTISOL 400 mg/mL (0.185 M),23.1 mM
same,Ganaxolone conc. by HPLC,[2]; CAPTISOL 400 mg/mL (0.185 M),7.68 mg/mL
